What was measured:
[1] = cited from earlier work
[2] = cited from earlier work; remark: listed apart in the source
[3] = solubility in supercritical fluid (CO2 or tetrafluoroethane); format: physicochemical; settings: supercritical CO2, FIG. 1
Excerpt: From among these supercritical fluids, mention may be made of CO2: the technology of supercritical CO2 is based on the solvent power of CO2 which may be modulated at will depending on the pressure and temperature conditions applied to it.
A method for extraction with supercritical CO2 operates in a closed circuit. It includes pressurizing units (pumps) and a temperature-setting unit (exchangers) in order to bring CO2 above its critical point.
The product to be treated is placed in an extractor crossed by the supercritical CO2 flow. Molecules which are soluble in supercritical CO2, therefore extractable, are not very polar compounds with a low molecular mass.
The table below repeats the result when using S modafinil, and mannitol instead of anhydrous lactose; further the loading level was increased to about 30%.

[4] = estimated; absolute bioavailability could not be determined; cited from earlier work

Row | SMILES | solubility in methanol and acetone ([1]; methanol and acetone) | solubility in water ([1]; water) | elimination half life ([2]; in humans) | solubility in CO2 [3] | bioavailability [4] | AUC compared with the racemic form ([2]; after administration) | variability in plasma levels compared with the racemic form ([2]; after administration)
1 | NC(=O)C[S+]([O-])C(c1ccccc1)c1ccccc1 (racemic) [Modafinil] | partly soluble | practically insoluble | about 14 hours | acceptable solubility | about 40% | – | –
2 | NC(=O)C[S@@+]([O-])C(c1ccccc1)c1ccccc1 (single isomer, unassigned) [levo-rotatory enantiomer (R)] | – | – | – | – | – | larger AUC than the racemic form | less variability

— patent US9782367B2, “Process for obtaining a modafinil-based pharmaceutical composition, resulting pharmaceutical composition and use thereof” (DEBREGEAS ET ASSOCIES PHARMA, priority 2012, dated 2017)
